The source made the active and inactive calls. The calls are words filed in the database; no cut-off is given here.

By IC50 is commonly meant the concentration that gives 50% inhibition.

The nature of test [1]: Inhibition of AAC(6')-1b (unknown origin) expressed in Escherichia coli TOP10 assessed as reduction in acetylation of kanamycin A in presence of acetyl CoA by DTNB based microplate reader analysis.
A short description of test [2]: Inhibition of AAC(6')-1b (unknown origin) expressed in Escherichia coli TOP10 assessed as reduction in acetylation of amikacin in presence of acetyl CoA by DTNB based microplate reader analysis.
The nature of test [3]: Uncompetitive inhibition of AAC(6')-1b (unknown origin) expressed in Escherichia coli TOP10 assessed as reduction in acetylation of kanamycin A in presence of varying acetyl CoA by DTNB based microplate reader analysis.
Test [4] is described as follows: Mixed-noncompetitive inhibition of AAC(6')-1b (unknown origin) expressed in Escherichia coli TOP10 assessed as reduction in acetylation of kanamycin A in presence of varying kanamycin A and in presence of fixed acetyl CoA level by DTNB based microplate reader analysis.
A further test concerns Klebsiella pneumoniae. Nature of the test: Inhibition of AAC(6')-1b in amikacin-resistant Klebsiella pneumoniae harboring AAC(6')-1b assessed as growth inhibition in presence of amikacin.
The test system of test [5] is Acinetobacter baumannii. Kind of test: Inhibition of AAC(6')-1b in amikacin-resistant Acinetobacter baumannii A155 harboring AAC(6')-1b assessed as growth inhibition at 50 uM in presence of 8 ug/ml amikacin.
Test [6] has as its system Acinetobacter baumannii. Kind of test: Inhibition of AAC(6')-1b in amikacin-resistant Acinetobacter baumannii A155 harboring AAC(6')-1b assessed as growth inhibition at 100 uM in presence of 6 ug/ml amikacin.

Turning to `NCCc1cccc(CN2CCC(O)(CN3CCCCC3)C2)c1` (racemic), the 50% inhibitory concentration (IC50) in test [1] is 39.7 µM; in test [2], 34.9 µM. The inhibition entry (in test [3]; in test [4]; in the test with Acinetobacter baumannii [5]; with Acinetobacter baumannii [6]) was “Active” in each case. Moreover, in the test on Klebsiella pneumoniae, the “growth inhibition (GI)” value is “inactive”.

These data come from ChEMBL document CHEMBL3779835, “Identification of an Inhibitor of the Aminoglycoside 6'-N-Acetyltransferase type Ib [AAC(6')-Ib] by Glide Molecular Docking” (Medchemcomm, 2016).
